The target of assay [1] is T1, pig kidney fucokinase (Sus scrofa, UniProt I3LTC2).
T1 construct: L-Fucokinase was purified to apparent homogeneity from the cytosolic fraction of pig kidney; from tissue; host or cells: pig kidney, cytosolic fraction
T1 sequence (I3LTC2 1-1083): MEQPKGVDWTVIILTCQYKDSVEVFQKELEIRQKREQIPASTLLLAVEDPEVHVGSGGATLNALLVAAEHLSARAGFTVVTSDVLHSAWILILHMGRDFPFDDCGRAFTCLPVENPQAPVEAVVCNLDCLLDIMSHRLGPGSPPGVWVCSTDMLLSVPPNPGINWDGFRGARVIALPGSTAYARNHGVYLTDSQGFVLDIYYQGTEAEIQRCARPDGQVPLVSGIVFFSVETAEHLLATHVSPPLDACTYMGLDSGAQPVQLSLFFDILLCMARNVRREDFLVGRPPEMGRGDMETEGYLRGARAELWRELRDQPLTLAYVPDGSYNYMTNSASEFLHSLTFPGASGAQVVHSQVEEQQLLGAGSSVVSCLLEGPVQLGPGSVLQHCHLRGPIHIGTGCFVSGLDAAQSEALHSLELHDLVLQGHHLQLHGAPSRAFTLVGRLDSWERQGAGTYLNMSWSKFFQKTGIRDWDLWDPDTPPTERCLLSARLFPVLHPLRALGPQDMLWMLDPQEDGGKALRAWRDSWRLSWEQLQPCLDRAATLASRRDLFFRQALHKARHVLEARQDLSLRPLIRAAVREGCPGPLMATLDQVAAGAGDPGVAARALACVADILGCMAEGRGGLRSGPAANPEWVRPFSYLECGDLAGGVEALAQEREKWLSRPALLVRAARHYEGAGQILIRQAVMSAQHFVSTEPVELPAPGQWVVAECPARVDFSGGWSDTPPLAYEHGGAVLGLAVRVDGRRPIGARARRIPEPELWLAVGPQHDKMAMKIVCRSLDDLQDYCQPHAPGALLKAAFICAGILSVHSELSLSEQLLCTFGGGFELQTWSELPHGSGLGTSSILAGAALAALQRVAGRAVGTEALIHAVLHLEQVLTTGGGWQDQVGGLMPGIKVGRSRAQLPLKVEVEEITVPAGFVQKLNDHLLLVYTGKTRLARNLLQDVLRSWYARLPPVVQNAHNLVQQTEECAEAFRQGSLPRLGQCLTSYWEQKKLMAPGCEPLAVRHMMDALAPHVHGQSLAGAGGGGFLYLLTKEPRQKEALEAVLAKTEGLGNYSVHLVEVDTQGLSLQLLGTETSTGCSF
The assay is described as follows: Inhibition of [3H]L-fucose phosphorylation by unlabeled monosaccharides. It counts as biochemical. Conditions: unlabeled monosaccharide 500 μM; radiolabeled L-fucose substrate 100 μM. The method, then:
(§1) Fucokinase activity was assayed by measuring the production of L-fucose-1-Pfrom [^3 H]L-fucose and ATP. The incubation mixtures contained the following components (final concentrations) in a total volume of 150 μl: L-fucose, 0.1 mM; ATP, 5 mM; MgSO4, 5 mM; Tris-HCl buffer, pH 8.0, 65 mM; and various amounts of enzyme at the different stages of purification. Incubations were at 37° C. for 10 minutes, and reactions were terminated by heating the reaction mixtures in a boiling water bath for 1 minute. The incubation mixtures were then applied to a column of DE-52 contained in a Pasteur pipette, and the column was washed with at least 5 column volumes of 10 mM (NH4)HCO3 to remove the unbound material. The [^3 H]fucose-1-P was then eluted with 500 mM (NH4)HCO3. Aliquots of the eluates were assayed for their radioactive content by subjecting a portion to scintillation counting.
Although it was possible to get a reasonable assessment of the sugar specificity of the kinase from the above experiment, it was not possible to test sugars such as D-fucose, since these sugars are not available in radioactive form. Thus, these unlabeled sugars were tested for their ability to inhibit the phosphorylation of [^3 H]L-fucose. The rationale for this experiment is that a sugar that inhibits the phosphorylation of L-fucose would probably compete with L-fucose for the phosphorylation (i.e., active) site.

Assay [2] deals with T1, pig kidney fucokinase. As to the kind of experiment: Sugar specificity of purified fucokinase (radiolabeled sugars as phosphate acceptors). The note with it: for activity as phosphate acceptor (in words): purified enzyme; for Specific Activity: radiolabeled sugar 100 μM as phosphate acceptor. It counts as biochemical. As for the experimental part: as §1
The specificity of the kinase for various sugar substrates was examined in two different ways. In the first set of experiments, various radiolabeled sugars were tested as phosphate acceptors for the purified enzyme using the ion-exchange chromatography method for assay of activity. […] D-Arabinose, which has the same configuration at carbons 1 through 4 as L-fucose, was also a reasonable substrate for phosphorylation, and was about 10% as effective as L-fucose. On the other hand, all of the other sugars were ineffective as phosphate acceptors.

The subject of assay [3] is pig liver L-fucokinase preparation. The note with it: cited from earlier work.
Assay [4] concerns the target T1, pig kidney fucokinase. As to the kind of experiment: Specificity of fucokinase for phosphate donor (nucleotides). The format is biochemical. Conditions: nucleotide added at 1 mM as phosphate donor. As for the experimental part:
as §1
The specificity of the nucleoside triphosphate was also examined by testing the ability of a variety of nucleotides to serve as phosphate donors in the phosphorylation of [^3 H]L-fucose. […] In addition, no activity is observed with any nucleoside diphosphates or monophosphates.

The target in assay [5] is T2, pig kidney fucokinase (110 kDa band) (Sus scrofa, UniProt I3LTC2).
T2 construct: L-Fucokinase was purified to apparent homogeneity from the cytosolic fraction of pig kidney; from tissue; host or cells: pig kidney, cytosolic fraction
T2 sequence (I3LTC2 1-1083): T1 sequence (I3LTC2 1-1083)
The assay is described as follows: Photoaffinity labeling of the fucokinase with 8-azido-ATP[32P]. The note with it: for inhibition of labeling of the 110 kDa band by N3-ATP[32P] (in words): unlabeled ATP 0.3-1.2 mM, GTP, ITP 0.6 and 1.2 mM. The format is binding. As for the experimental part: The purified enzyme was incubated for 20 seconds with azido-ATP[^32 P], and the mixture was exposed to UV for 90 seconds. The reaction was stopped by adding loading buffer and the mixture subjected to SDS-PAGE. Radioactive bands were detected by exposure to film. Lanes are as follows: Lane 1, Probe+enzyme, but no UV; Lane 2, Probe+enzyme+UV; Lanes 3 through 6. Probe+enzyme+0.3, 0.6, 0.9, and 1.2 mM ATP+exposure to UV light; lanes 7 and 8, 0.6 and 1.2 mM GTP+probe+exposure to UV light: lanes 9 and 10, 0.6 and 1.2 mM ITP+probe+exposure to UV light. In lanes 11 and 12, the enzyme was incubated with N3 -GTP[^32 P ] and then exposed to UV light (lane 12) or not exposed to UV light (lane 11). Lane 13 is a control of enzyme+N3 -ATP[^32 P]+exposure to UV light.
Enzyme, at various stages of purity, was mixed with 8-azido-ATP[^32 P] in buffer, and allowed to incubate for 20 sec. in an ice bath. 8-Azido-ATP[^32 P] was prepared as previously described (16). After incubation, the reaction mixture was exposed to short wave UV light for about 90 sec. to activate the azido group, and the protein was subjected to SDS gel electrophoresis to separate the proteins. The gels were dried and exposed to film to locate the radioactive bands and were also stained with Coomassie blue to locate the various proteins. The specificity of the labeling was determined by examining the effect of various concentrations of unlabeled ATP or other nucleotides on the labeling of the protein by N3 -ATP[^32 P]. Various controls were also run, such as one in which exposure to UV was omitted.
Lanes 11-13 of FIG. 3 show the results of another experiment designed to determine whether 8-N3 -GTP[^32 P] could label the fucokinase. […] These experiments indicate that the fucokinase is quite specific for ATP.

Assay [6] concerns the target T1, pig kidney fucokinase. The assay is described as follows: Inhibition of fucokinase by GDP-L-fucose and other GDP-linked sugars. It counts as biochemical. The method, then:
as §1
It can be seen that the amount of inhibition of fucokinase increased with increasing amounts of GDP-L-fucose, and the Ki for GDP-L-fucose was estimated to be about 10 μM.

Assay [7] has as its system pig liver L-fucokinase preparation. Conditions: cited from earlier work. This is another data set of the same source.

Turning to `O=C[C@H](O)[C@@H](O)[C@@H](O)[C@H](O)CO` [D-galactose], the “Relative Activity (%)” value at pig kidney fucokinase [1] was found to be 100%. Moreover, on pig kidney fucokinase [2], the “activity as phosphate acceptor (in words)” value (from here on “activity … (in words)”) was “does not phosphorylate” and the “Specific Activity” value is listed as 0 nmole/mg protein. Moreover, the “rate of phosphorylation compared with L-fucose (in words)” value in assay [3] is reported as “about the same rate or better”.

On to `O=C[C@@H](O)[C@@H](O)[C@H](O)[C@H](O)CO` [D-mannose], for which the “Relative Activity (%)” value at pig kidney fucokinase [1] is given as 100%. At pig kidney fucokinase [2], the “activity … (in words)” value is “does not phosphorylate” and the “Specific Activity” value stood at 0 nmole/mg protein. In assay [3], the “rate of phosphorylation compared with L-fucose (in words)” value is “about the same rate or better”.

In the case of `Nc1ncnc2c1ncn2[C@@H]1O[C@H](COP(=O)(O)OP(=O)(O)OP(=O)(O)O)[C@@H](O)[C@H]1O` [ATP], the “Specific Activity” value at pig kidney fucokinase [4] was found to be 4.05 nmoles/mg protein/10 min. In addition, the “inhibition of labeling of the 110 kDa band by N3-ATP[32P] (in words)” value (from here on “inhibition of labeling … (in words)”) in assay [5] is on record as “inhibited in a dose-dependent manner”.

`O=c1[nH]cnc2c1ncn2[C@@H]1O[C@H](COP(=O)(O)OP(=O)(O)OP(=O)(O)O)[C@@H](O)[C@H]1O` [ITP]: the “Specific Activity” value on pig kidney fucokinase [4] was 0.10 nmoles/mg protein/10 min. Further, the “inhibition of labeling … (in words)” value in assay [5] was “considerably less effective in inhibiting”.

For the compound `C[C@@H]1O[C@H](OP(=O)(O)O)[C@@H](O)[C@H](O)[C@@H]1O` [L-fucose-1-P], on pig kidney fucokinase [6], the “inhibition of the fucokinase (in words)” value is on record as “did not inhibit”.

The term Ki denotes the dissociation constant of the complex between target and ligand, obtained from inhibition or displacement. A lower Ki goes with higher affinity. Consider `C[C@@H]1O[C@H](OP(=O)(O)OP(=O)(O)OC[C@H]2O[C@@H](n3cnc4c(=O)[nH]c(N)nc43)[C@H](O)[C@@H]2O)[C@@H](O)[C@H](O)[C@@H]1O` [GDP-L-fucose], for which the Ki on pig kidney fucokinase [6] (100 μM [3H]fucose, 5 mM ATP, 5 mM Mg++, pH 8.0) is about 10 µM.

Regarding `Nc1nc2c(ncn2[C@@H]2O[C@H](COP(=O)(O)OP(=O)(O)OC3O[C@H](CO)[C@@H](O)[C@H](O)[C@H]3O)[C@@H](O)[C@H]2O)c(=O)[nH]1` (stereo partly drawn) [GDP-D-glucose], the “inhibition of the fucokinase (in words)” value against pig kidney fucokinase [6] is listed as “did not inhibit”.

As for `Nc1nc2c(ncn2[C@@H]2O[C@H](COP(=O)(O)OP(=O)(O)OP(=O)(O)O)[C@@H](O)[C@H]2O)c(=O)[nH]1` [GTP], the “Specific Activity” value at pig kidney fucokinase [4] is 0.09 nmoles/mg protein/10 min. The “inhibition of labeling … (in words)” value in assay [5] is recorded as “considerably less effective in inhibiting”. For the same compound, in assay [7], the “use as phosphate donor (in words)” value was “could also use”.

Consider `Nc1nc2c(ncn2[C@@H]2O[C@H](COP(=O)(O)OP(=O)(O)O[C@H]3O[C@H](CO)[C@@H](O)[C@H](O)[C@@H]3O)[C@@H](O)[C@H]2O)c(=O)[nH]1` [GDP-D-mannose], for which the “inhibition of the fucokinase (in words)” value on pig kidney fucokinase [6] is “did not inhibit”.

For the compound `O=C[C@H](O)[C@@H](O)[C@H](O)[C@H](O)CO` [D-glucose], the “Relative Activity (%)” value at pig kidney fucokinase [1] worked out at 100%. Moreover, on pig kidney fucokinase [2], the “activity … (in words)” value is reported as “does not phosphorylate” and the “Specific Activity” value stood at 0.3 nmole/mg protein. Moreover, the “phosphorylation of sugar by the about 70-fold purified preparation (in words)” value in assay [7] was “considerable activity for phosphorylating”. The “rate of phosphorylation compared with L-fucose (in words)” value in assay [3] is recorded as “about the same rate or better”.

Take `[N-]=[N+]=Nc1nc2c(N)ncnc2n1[C@@H]1O[C@H](COP(=O)(O)OP(=O)(O)OP(=O)(O)O)[C@@H](O)[C@H]1O` [N3 -ATP[^32 P], 8-azido-ATP[^32 P]]: the “labeling of the 110 kDa protein by photoprobe (in words)” value in assay [5] (incubation with probe, exposure to UV light) is listed as “did result in labeling of the 110 kDa protein”.

These data come from US6090605A, “Purified porcine kidney L-fucose kinase” (The Board of Trustees of the University of Arkansas, priority 1998, dated 2000).
